The compounds below were run against T1, METTL3/14 (Homo sapiens, UniProt Q86U44) (assay: METTL3/14 methyltransferase assay (METTL3_14 RFMS, RapidFire mass spectrometry)). Conditions: 5 nM METTL3/14, 0.2 μM RNA substrate, 0.5 μM SAM; lower limit of the assay IC50=5 nM; Compounds 63-265; read-out: METTL3_14 RFMS IC50.
T1 construct: The enzyme used was full-length his-tagged METTL3; His; made in house
Assay type: biochemical
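Note: recombinant His-tagged METTL3 with FLAG-tagged METTL14 from baculovirus, SAH product quantified by mass spectrometry against isotope-labelled internal standards, 60 min at room temperature, scaled between no-RNA and DMSO-only wells.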

T1 sequence (Q86U44 whole entry): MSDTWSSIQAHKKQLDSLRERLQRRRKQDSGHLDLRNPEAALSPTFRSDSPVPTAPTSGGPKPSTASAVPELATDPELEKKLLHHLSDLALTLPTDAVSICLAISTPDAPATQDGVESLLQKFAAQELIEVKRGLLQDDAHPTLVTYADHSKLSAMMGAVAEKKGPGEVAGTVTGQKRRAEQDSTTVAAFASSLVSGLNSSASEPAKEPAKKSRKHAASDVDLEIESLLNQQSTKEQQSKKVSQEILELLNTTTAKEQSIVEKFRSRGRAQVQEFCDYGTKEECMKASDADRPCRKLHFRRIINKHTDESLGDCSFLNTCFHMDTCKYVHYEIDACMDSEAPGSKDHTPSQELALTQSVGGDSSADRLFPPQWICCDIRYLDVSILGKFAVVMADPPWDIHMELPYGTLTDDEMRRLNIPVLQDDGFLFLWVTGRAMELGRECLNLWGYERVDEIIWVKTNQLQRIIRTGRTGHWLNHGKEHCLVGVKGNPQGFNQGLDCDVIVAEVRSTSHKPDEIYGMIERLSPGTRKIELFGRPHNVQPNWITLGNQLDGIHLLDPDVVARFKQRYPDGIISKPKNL
T1 sequence (Q9HCE5 whole entry partner): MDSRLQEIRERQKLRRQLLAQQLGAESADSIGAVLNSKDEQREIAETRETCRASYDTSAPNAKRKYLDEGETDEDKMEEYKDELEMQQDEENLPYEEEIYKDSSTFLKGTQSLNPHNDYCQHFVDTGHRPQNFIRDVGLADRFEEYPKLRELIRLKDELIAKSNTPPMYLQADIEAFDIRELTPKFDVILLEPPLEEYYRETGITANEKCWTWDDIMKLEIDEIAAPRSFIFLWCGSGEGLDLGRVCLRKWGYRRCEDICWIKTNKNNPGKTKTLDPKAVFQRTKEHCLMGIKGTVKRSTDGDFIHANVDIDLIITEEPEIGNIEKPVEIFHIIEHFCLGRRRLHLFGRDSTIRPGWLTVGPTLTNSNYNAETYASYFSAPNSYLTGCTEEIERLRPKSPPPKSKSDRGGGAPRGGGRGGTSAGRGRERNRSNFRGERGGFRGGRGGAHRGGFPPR

Row | IC50 | SMILES
1 | 93.2 nM | CC1(CNCc2ccc3nc(CNC(=O)c4cc(=O)n5ccccc5n4)cn3c2)CCCO1 (centres unmarked) [Compound 160, N-{[6-({[(2-methyloxolan-2-yl)methyl]amino}methyl)imidazo [1,2-a]pyridin-2-yl]methyl}-4-oxo-4H-pyrido [1,2-a]pyrimidine-2-carboxamide]
2 | 99.1 nM | CC(C)(C)C1CCN(Cc2ccc3nc(CNC(=O)c4cc(=O)n5ccccc5n4)cn3c2)CC1 [Compound 161, N-({6-[(4-tert-butylpiperidin-1-yl)methyl]imidazo[1,2-a]pyridin-2-yl}methyl)-4-oxo-4H-pyrido[1,2-a]pyrimidine-2-carboxamide]
3 | 225 nM | CC(C)(C)C1CCC(NCc2ccc3nc(CNC(=O)c4cc(=O)n5ccccc5n4)cn3c2)CC1 (centres unmarked) [Compound 162, N-[(6-{[(4-tert-butylcyclohexyl)amino]methyl}imidazo[1,2-a]pyridin-2-yl)methyl]-4-oxo-4H-pyrido[1,2-a] pyrimidine-2-carboxamide]
4 | 80.1 nM | O=C(NCc1cn2cc(CNCCC3CCCC3)ccc2n1)c1cc(=O)n2ccccc2n1 [Compound 163, N-[(6-{[(2-cyclopentylethyl)amino]methyl}imidazo[1,2-a]pyridin-2-yl)methyl]-4-oxo-4H-pyrido[1,2-a]pyrimidine-2-carboxamide]
5 | 10500 nM | CC(C)(C)C(=O)N1CCN(Cc2ccc3nc(CNC(=O)c4cc(=O)n5ccccc5n4)cn3c2)CC1 [Compound 166, N-[(6-{[4-(2,2-dimethylpropanoyl)piperazin-1-yl]methyl}imidazo[1,2-a]pyridin-2-yl)methyl]-4-oxo-4H-pyrido [1,2-a]pyrimidine-2-carboxamide]
6 | 8070 nM | CC(=O)N1CCN(Cc2ccc3nc(CNC(=O)c4cc(=O)n5ccccc5n4)cn3c2)CC1 [Compound 167, N-({6-[(4-acetylpiperazin-1-yl)methyl]imidazo[1,2-a]pyridin-2-yl}methyl)-4-oxo-4H-pyrido[1,2-a]pyrimidine-2-carboxamide]
7 | 114 nM | O=C(NCc1cn2cc(CNC(CO)C3CCCCC3)ccc2n1)c1cc(=O)n2ccccc2n1 (centres unmarked) [Compound 168, N-[(6-{[(1-cyclohexyl-2-hydroxyethyl)amino]methyl}imidazo[1,2-a]pyridin-2-yl)methyl]-4-oxo-4H-pyrido[1,2-a]pyrimidine-2-carboxamide]
8 | 29.4 nM | O=C(NCc1cn2cc(CNCC3CCCCC3)ccc2n1)c1cc(=O)c2ccccc2o1 [Compound 170, N-[(6-{[(cyclohexylmethyl)amino]methyl}imidazo[1,2-a]pyridin-2-yl)methyl]-4-oxo-4H-chromene-2-carboxamide]
9 | 293 nM | O=C(NCc1cn2cc(CNCC3CCCCC3)ccc2n1)c1cc(=O)c2ccc(Cl)cc2o1 [Compound 171, 7-chloro-N-[(6-{[(cyclohexylmethyl)amino]methyl}imidazo[1,2-a]pyridin-2-yl)methyl]-4-oxo-4H-chromene-2-carboxamide]
10 | 309 nM | O=C(NCc1cn2cc(CNCC3CCCCC3)ccc2n1)c1cc(=O)c2cc(Cl)ccc2o1 [Compound 172, 6-chloro-N-[(6-{[(cyclohexylmethyl)amino]methyl}imidazo[1,2-a]pyridin-2-yl)methyl]-4-oxo-4H-chromene-2-carboxamide]
11 | 214 nM | O=C(NCc1cn2cc(CNCC3CCCCC3)ccc2n1)c1cc(=O)n2c(n1)CCCC2 [Compound 175, N-[(6-{[(cyclohexylmethyl)amino]methyl}imidazo[1,2-a]pyridin-2-yl)methyl]-4-oxo-4H,6H,7H,8H, 9H-pyrido[1,2-a]pyrimidine-2-carboxamide]
12 | 909 nM | Nc1ccc(C(=O)NCc2cn3cc(CNCC4CCCCC4)ccc3n2)cn1 [Compound 176, 6-amino-N-[(6-{[(cyclohexylmethyl)amino]methyl}imidazo[1,2-a]pyridin-2-yl)methyl] pyridine-3-carboxamide]
13 | 1890 nM | O=C(NCc1cn2cc(COCc3ccccc3)ccc2n1)c1cc(=O)n2ccccc2n1 [Compound 177]
14 | 889 nM | O=C(NCc1cn2cc(CNCC3CCCCC3)ccc2n1)c1cc(=O)c2ccc(F)cc2o1 [Compound 180, N-[(6-{[(cyclohexylmethyl)amino]methyl}imidazo [1,2-a]pyridin-2-yl)methyl]-7-fluoro-4-oxo-4H-chromene-2-carboxamide]
15 | 179 nM | Cc1ccc2c(=O)cc(C(=O)NCc3cn4cc(CNCC5CCCCC5)ccc4n3)oc2c1 [Compound 181, N-[(6-{[(cyclohexylmethyl)amino]methyl}imidazo[1,2-a]pyridin-2-yl)methyl]-7-methyl-4-oxo-4H-chromene-2-carboxamide]
16 | 179 nM | O=C(NCc1cn2cc(CNCC3CCCCC3)ccc2n1)c1cccc2[nH]ncc12 [Compound 182, N-[(6-{[(cyclohexyl-methyl)amino]methyl}imidazo[1,2-a]pyridin-2-yl)methyl]-1H-indazole-4-carboxamide]
17 | 1070 nM | O=C(NCc1cn2cc(CNCC3CCCCC3)ccc2n1)c1cc(=O)c2cccc(Cl)c2o1 [Compound 185, 8-chloro-N-[(6-{[(cyclohexylmethyl)amino]methyl}imidazo[1,2-a]pyridin-2-yl)methyl]-4-oxo-4H-chromene-2-carboxamide]
18 | 44.1 nM | O=C(NCc1cn2cc(CNCC3CCCCC3)ccc2n1)c1cc(Br)cc2[nH]ncc12 [Compound 187, 6-bromo-N-[(6-{[(cyclohexylmethyl)amino]methyl}imidazo[1,2-a]pyridin-2-yl)methyl]-1H-indazole-4-carboxamide]
19 | 132 nM | CC(NCC1CCCCC1)c1ccc2nc(CNC(=O)c3cc(=O)n4ccccc4n3)cn2c1 (centres unmarked) [Compound 189, N-[(6-{1-[(cyclohexyl-methyl)amino]ethyl}imidazo [1,2-a]pyridin-2-yl)methyl]-4-oxo-4H-pyrido[1,2-a]pyrimidine-2-carboxamide]
20 | 56.1 nM | O=C(NCc1cn2cc(CNCC3CCCCC3)ccc2n1)c1cc(Cl)cc2[nH]ncc12 [Compound 190, 6-chloro-N-[(6-{[(cyclohexylmethyl)amino]methyl}imidazo[1,2-a]pyridin-2-yl)methyl]-1H-indazole-4-carboxamide]
21 | 305 nM | CC1(C)CCCCN1Cc1ccc2nc(CNC(=O)c3cc(=O)n4ccccc4n3)cn2c1 [Compound 194, N-({6-[(2,2-dimethylpiperidin-1-yl)methyl]imidazo[1,2-a]pyridin-2-yl}methyl)-4-oxo-4H-pyrido[1,2-a]pyrimidine-2-carboxamide]
22 | 597 nM | O=C(NCc1cn2cc(CNc3ccc(F)cn3)ccc2n1)c1cc(=O)n2ccccc2n1 [Compound 196, N-[(6-{[(5-fluoropyridin-2-yl)amino]methyl}imidazo[1,2-a]pyridin-2-yl)methyl]-4-oxo-4H-pyrido[1,2-a] pyrimidine-2-carboxamide]
23 | 84.8 nM | O=C(NCc1cn2cc(CNC3(C4CC4)CC3)ccc2n1)c1cc(=O)n2ccccc2n1 [Compound 197, N-({6-[({[1,1′-bi(cyclopropane)]-1-yl}amino)methyl]imidazo [1,2-a]pyridin-2-yl}methyl)-4-oxo-4H-pyrido [1,2-a]pyrimidine-2-carboxamide]
24 | 44.1 nM | O=C(NCc1cn2cc(CNCC3(F)CCCC3)ccc2n1)c1cc(=O)n2ccccc2n1 [Compound 198, N-{[6-({[(1-fluorocyclopentyl)methyl]amino}methyl)imidazo [1,2-a]pyridin-2-yl]methyl}-4-oxo-4H-pyrido [1,2-a]pyrimidine-2-carboxamide]
25 | 1860 nM | CC1CN(Cc2ccc3nc(CNC(=O)c4cc(=O)n5ccccc5n4)cn3c2)CC(C)O1 (centres unmarked) [Compound 199, N-({6-[(2,6-dimethylmorpholin-4-yl)methyl]imidazo[1,2-a]pyridin-2-yl}methyl)-4-oxo-4H-pyrido[1,2-a]pyrimidine-2-carboxamide]
26 | 1260 nM | COC(=O)C1CCCN(Cc2ccc3nc(CNC(=O)c4cc(=O)n5ccccc5n4)cn3c2)C1 (centres unmarked) [Compound 200, methyl 1-({2-[({4-oxo-4H-pyrido[1,2-a]pyrimidin-2-yl}formamido)methyl]imidazo [1,2-a]pyridin-6-yl}methyl) piperidine-3-carboxylate]
27 | 61.1 nM | CC(C)(F)CNCc1ccc2nc(CNC(=O)c3cc(=O)n4ccccc4n3)cn2c1 [Compound 202, N-[(6-{[(2-fluoro-2-methylpropyl)amino]methyl}imidazo[1,2-a]pyridin-2-yl)methyl]-4-oxo-4H-pyrido[1,2-a] pyrimidine-2-carboxamide]
28 | 61.5 nM | CN(CCC1CC1)Cc1ccc2nc(CNC(=O)c3cc(=O)n4ccccc4n3)cn2c1 [Compound 204, N-[(6-{[(2-cyclopropylethyl) (methyl)amino]methyl}imidazo [1,2-a]pyridin-2-yl)methyl]-4-oxo-4H-pyrido [1,2-a]pyrimidine-2-carboxamide]
29 | 197 nM | CN(Cc1ccc2nc(CNC(=O)c3cc(=O)n4ccccc4n3)cn2c1)CC(C)(C)C [Compound 205, N-[(6-{[(2,2-dimethylpropyl) (methyl)amino]methyl}imidazo [1,2-a]pyridin-2-yl)methyl]-4-oxo-4H-pyrido [1,2-a]pyrimidine-2-carboxamide]
30 | 5730 nM | O=C(NCc1cn2cc(CN3CCCC(F)(F)C3)ccc2n1)c1cc(=O)n2ccccc2n1 [Compound 208, N-({6-[(3,3-difluoropiperidin-1-yl)methyl]imidazo[1,2-a]pyridin-2-yl}methyl)-4-oxo-4H-pyrido [1,2-a]pyrimidine-2-carboxamide]

Row | SMILES | IC50
31 | O=C(NCc1cn2cc(CN3C4CCC3CC4)ccc2n1)c1cc(=O)n2ccccc2n1 [Compound 169, N-{[6-({7-azabicyclo [2.2.1]heptan-7-yl}methyl)imidazo[1,2-a]pyridin-2-yl]methyl}-4-oxo-4H-pyrido[1,2-a]pyrimidine-2-carboxamide] | 391 nM

Same assay, conditions: read-out: METTL3_14 RFMS IC50

Row | IC50 | SMILES
32 | 4790 nM | O=C(NCc1cn2cc(NCCc3ccccc3)ccc2n1)c1cc(=O)n2ccccc2n1 [Compound 191, 4-oxo-N-({6-[(2-phenylethyl)amino]imidazo[1,2-a]pyridin-2-yl}methyl)-4H-pyrido[1,2-a]pyrimidine-2-carboxamide]

From US12358915B2, “METTL3 inhibitory compounds” (STORM THERAPEUTICS LTD., priority 2019, dated 2025)
